Measured values published in patent US7217530B2 (priority 2002, dated 2007).

Assays:
[1] = biological target: recombinant PrP protein (recPrP) (Homo sapiens, UniProt P04156); type: physicochemical

p-sulfonato-3,7-(2-carboxy-methyloxy)-calix-[6]-arene [AML1]
dilution up to which detection of PrP^sc in the sample is possible (PrP^sc): 1/32
detection of the prion increased over detection of the same protein in the absence of AML1 (PrP^sc; immunoblotting, FIG. 1, free AML1): at least four
structures observed for recPrP films in the presence of AML ([1]; SPM images, FIGS. 3 and 4): modified sequentially
Average height ([1]; dried film on mica, SPM): 217.7
Maximum height value ([1]; dried film on mica, SPM): 448.9
RMS (root mean square rugosity) ([1]; dried film on mica, SPM): 58.7 nm
Ra (average rugosity) ([1]; dried film on mica, SPM): 48 nm
